This is an account of results in patent US9605027B2, “Polypeptides that bound to IL-23 receptor and inhibit binding of IL-23 and cell signaling thereof” (Medical Diagnostic Laboratories, LLC, priority 2011, dated 2017).

“Also recorded” adds a separate entry of the source. Bridge positions count the residues as written; N and C are the ends. Ends that are not written are not given here. A value given as a limit tells only on which side of the number the result lay.

Data set [1] concerns the target T1, Recombinant human IL-23R-Fc (Homo sapiens, UniProt Q5VWK5).
T1 construct: has the protein portion between the 24 amino acid residue to 353 amino acid residue; purchased R&D Systems 1400-IR-050
T1 sequence (Q5VWK5 24-353): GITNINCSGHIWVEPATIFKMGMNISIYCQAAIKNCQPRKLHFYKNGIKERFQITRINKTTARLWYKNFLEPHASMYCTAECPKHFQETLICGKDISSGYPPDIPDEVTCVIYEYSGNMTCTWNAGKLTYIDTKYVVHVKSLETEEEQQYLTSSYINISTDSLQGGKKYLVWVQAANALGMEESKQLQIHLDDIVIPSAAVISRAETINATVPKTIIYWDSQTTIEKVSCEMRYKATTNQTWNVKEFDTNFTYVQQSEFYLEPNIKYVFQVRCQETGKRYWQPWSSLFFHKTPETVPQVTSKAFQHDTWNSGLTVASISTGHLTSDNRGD
Briefly: Competitive ELISA, IL-23 binding to IL-23R. The settings on record: for IC50: human IL-23 / IL-23R-Fc, read-out: IC50, Competitive ELISA; for inhibition of IL-23 binding to its receptor by modified polypeptides, Competitive ELISA: procedure of Example 6, compared with parent polypeptide. The procedure:
The novel polypeptides were tested for their ability to inhibit IL-23 using a Competitive ELISA. In such an assay, IL-23R/Fc fusion protein was immobilized on a solid support. In this instance, the solid support was a 96-well plate, but the support may be any support that is typically used for an ELISA. The novel polypeptide and IL-23 were allowed to compete for binding to the immobilized IL-23R/Fc fusion protein. IL-23 that bound to IL-23R-Fc was detected using biotinylated anti-p40 antibody. The bound anti-p40 antibody was detected using streptavidin-horseradish peroxidase (HRP) and a tetramethylbenzidine (TMB) substrate was added to measure peroxidase activity. The color was measured at optical density (OD) 450nm. The color intensity was directly proportional to the amount of the bound IL-23 protein. […] (See, FIG. 16.)
(§1) FIG. 12 is a schematic depiction of the Competitive ELISA. Recombinant human IL-23R-Fc (2 μg/ml) was coated onto microtiter plates as a capture reagent. IL-23 and polypeptides were added to compete for binding to the immobilized IL-23R-Fc. IL-23 that bound to IL-23R-Fc was detected using biotinylated anti-p40 antibody (1:250). The bound anti-p40 antibody was detected using streptavidin-horseradish peroxidase (HRP) (1:500) and 100 μl/well of a tetramethylbenzidine (TMB) substrate was added to measure peroxidase activity. The color was measured at optical density (OD) 450nm. (See, FIG. 12). The color intensity was directly proportional to the amount of the bound IL-23 protein.
as §1, with “Recombinant” for “FIG. 12 is a schematic depiction of the Competitive ELISA. Recombinant”, “IL-23R-Fc. 50 μg human IL-23 (Cat. No. HZ-1048) (Humanzyme, Chicago, Ill.) in the presence or absence of 100 μM peptides was added to the well and incubated at 4° C. overnight.” for “IL-23R-Fc.”, “450nm.” for “450nm. (See, FIG. 12).”
(In general: ELISA stands for enzyme-linked immunosorbent assay.)

Data set [2] can be described thus: Solubility of synthetic polypeptides (precipitate in assay). Format: physicochemical. The following applies: under Competitive ELISA conditions.
The target in data set [3] is T2, IL-23R pathway in STAT3-Luc reporter DB cells (Homo sapiens, UniProt Q5VWK5). Briefly: Cell-based STAT3-Luc reporter DB cell assay (DB-Luc), inhibition of IL-23. The following applies: cyclic vs linear peptides. The procedure:
The Cignal STAT3 reporter (SA Biosciences, CCS-9028L), designed to measure the transcriptional activity of STAT3 homodimers, was transiently transfected into the DB cells. The stably transfected STAT3-Luc reporter clone was selected using 200 ng/ml of Hygromycin B.
The stably transfected STAT3-Luc reporter DB cells (0.5×10^6) were cultured in 100 μl of RPMI+10% FBS. IL-23 was added to the cells and incubated at 37° C. for 4 hours. Luciferase activity was measured using Dual-Glo luciferase assay system (Promega).
The isolated cyclic polypeptide no. 23.15-Fc fusion protein and cyclic polypeptide no. 23.19 were used in a cell-based assay to measure the IC50 values. The stably transfected STAT3-Luc reporter DB cells (0.5×10^6) were cultured in 100 μl of RPMI+10% FBS. The cells were pre-incubated with different concentration of isolated cyclic polypeptide no. 23.15-Fc fusion protein or polypeptide no. 23.19 for 30 minutes at 37° C. 50 ng/ml of IL-23 was added to the cells and incubated at 37° C. for an additional 4 hours. Luciferase activity was measured using Dual-Glo luciferase assay system (Promega). The IC50 values of isolated cyclic polypeptide no. 23.15-Fc fusion protein and cyclic polypeptide no. 23.19 are 2.5 μM and 2.5 μM respectively.
The isolated peptide no. 7 (SEQ ID NO: 156) and peptide no. 23.19 (SEQ ID NO: 130) (it is a cyclic version of the polypeptide no. 23.15) were used in a cell based assay to compare their inhibitory activity. The stably transfected STAT3-Luc reporter DB cells (0.5×10^6) were cultured in 100 μl of RPMI+10% FBS. The cells were pre-incubated with two different concentrations (10 μM and 2 μM) of isolated peptides for 30 minutes at 37° C. 50 ng/ml of IL-23 was added to the cells and incubated at 37° C. for an additional 4 hours. Luciferase activity was measured using Dual-Glo luciferase assay system (Promega). The inhibitory activity of isolated peptide no. 7 (SEQ ID NO: 156) is better than that of peptide no. 23.19 (SEQ ID NO: 130) (a cyclic version of polypeptide no. 23.15 (SEQ ID NO: 126) (See, FIG. 62).
DB cells express IL-23R on the cell surface. In addition, IL-23 stimulated the DB cells through the activation of STAT3 by phosphorylation (p-STAT3) (Example 7 (Figures. 14 and 15)). Based on these observations, DB cells were used to develop a cell-based assay to measure the inhibitory activity of peptide and peptide-Fc fusion protein in the IL-23R pathway. […]
The Cignal STAT3 reporter (SA Biosciences, CCS-9028L), which is designed to measure the transcriptional activity of STAT3 homodimers, was transiently transfected into the DB cells. The stably transfected STAT3-Luc reporter clone was selected using 200 ng/ml of Hygromycin B. The activity of IL-23R pathway can be measured by the transcriptional activity of STAT3 homodimers. […]

In data set [4] the target is T3, IL-23R deletion proteins (Homo sapiens, UniProt Q5VWK5).
T3 construct: made in house; host or cells: 293T cells (culture media)
T3 sequence (Q5VWK5 24-200): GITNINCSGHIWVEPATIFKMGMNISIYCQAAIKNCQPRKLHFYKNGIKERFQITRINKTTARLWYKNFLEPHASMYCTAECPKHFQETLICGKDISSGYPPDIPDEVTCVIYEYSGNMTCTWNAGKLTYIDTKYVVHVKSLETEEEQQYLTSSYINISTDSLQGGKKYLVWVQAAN
Briefly: Immunoprecipitation with FLAG-tagged IL-23R deletion proteins. The settings on record: 200 ng, anti-FLAG M2 immunoprecipitation, Western blot. Format: binding. The procedure: (§2) In this study, we examined which regions of IL-23R proteins were required for the binding to IL-23 and polypeptide no. 23.15-fc fusion protein. To do so, we generated a series of IL-23R deletion proteins as illustrated in the FIG. 48.
(§3) Culture media from 293T cells transfected with different FLAG-tagged IL-23R deletion constructs were incubated with 200 ng of either IL-23 or polypeptide no. 23.15-fc fusion protein, then immunoprecipitated with anti-FLAG M2 affinity gel. The immunoprecipitate was subjected to Western blotting and polypeptide no. 23.15-Fc fusion protein or IL-23 was visualized with either anti-mouse IgG or anti-hIL-12/23p40 respectively. IL-23 or polypeptide no. […] 23.15-fc fusion protein (FIG. 48).

Data set [5] deals with IL-23R deletion proteins. Described as above. Format: binding. The settings on record: 200 ng, anti-FLAG M2 immunoprecipitation, Western blot. Here is the method: as §2, §3
Background: Immunoblotting shows a protein as a band on a membrane.

Data set [6] concerns the target T2, IL-23R pathway in STAT3-Luc reporter DB cells. As to the kind of experiment: STAT3-Luc reporter DB cells stimulated with IL-23 cytokines. Format: cell-based. The procedure:
In Example 29 (above), we detailed the development of stably transfected STAT3-Luc reporter clone. […] The stably transfected STAT3-Luc reporter DB cells (0.5×10^6 cells) were cultured in 100 μl of RPMI+10% FBS. Recombinant IL-23 (Humanzyme) or isolated IL-23 (WT or W5) was added to the cells and incubated at 37° C. for 4 hours. Luciferase activity was measured using Dual-Glo luciferase assay system (Promega).
The reporter luciferase activity increased by approximately 10 folds. Isolated WT IL-23 cytokine at different concentrations (50,000, 5,000, 500 and 50 ng/ml) was added to stimulate these stable cells. […] At the concentration of 50 ng/ml, the isolated WT IL-23 cytokine stimulates the IL-23R pathway as good as the recombinant IL-23 cytokine from Humazyme.

For orientation: IC50 means the concentration that inhibits the measured activity by half. Turning to NWATYWQLRHQT [compound 9], the “inhibitory activity in Competitive ELISA in relation to polypeptide no. 1” value in data set [1] (50 μM polypeptide, 30 ng/ml IL-23) is “significant and better inhibitory activity compared to peptide number 1; also recorded: inhibited IL-23 binding more than polypeptide no. 1”. For the same compound, the IC50 in data set [1] is roughly 3 µM.
SGAWWVQYWVQR [1.18]: the solubility result in data set [2] is “insoluble”.
On the same count and under the same terms, the same measure for SGASWVQFWVQR [1.17]: “formed a precipitate”; for SGWWWVQYWVQR [1.20]: “insoluble”.
With SGASWVQYWVQR [Polypeptide no. 1], the IC50 in data set [1] was 6.25 to 12.5 µM.
Consider “7HT AA (AMKTWVDYWLETQA; head-to-tail cyclic; listed as Homo sapiens)”, for which the “inhibition of IL-23 binding to its receptor by modified polypeptides, Competitive ELISA” value (shortened to “inhibition of IL-23 binding”) in data set [1] was “did not abrogate the polypeptides' ability”. For the same compound, the “inhibitory activity in cell-based DB-Luc assay” value in data set [3] is “did not eliminate the inhibitory activity”.
For the compound “7 CC (CMKTWVDYWLETQC; disulfide 1-14 (inferred); listed as Homo sapiens)”, in data set [1], the “inhibition of IL-23 binding” value is “did not abrogate the polypeptides' ability”.
`CSCC[C@H](NC(=O)[C@H](C)N)C(=O)N[C@H](C(=O)N[C@@H](Cc1c[nH]c2ccccc12)C(=O)N[C@@H](CCC(N)=O)C(=O)N[C@@H](CC(=O)O)C(=O)N[C@@H](Cc1ccc(O)cc1)C(=O)N[C@@H](Cc1c[nH]c2ccccc12)C(=O)N[C@@H](CC(C)C)C(=O)N[C@@H](Cc1ccc(O)cc1)C(=O)NCC(=O)N[C@@H](CCCNC(=N)N)C(=O)O)[C@@H](C)O` [23.15]: in data set [1], the “inhibition of IL-23 binding” value is reported as “at least as effective”.
Turning to SGASWVQYWWWR [1.21], the solubility entry in data set [2] is recorded as “insoluble”.
On to “IL-23: heterodimeric cytokine of p19 and p40 subunits; recombinant from Humanzyme”, for which the “binding to IL-23R deletion protein 1-200” value in data set [4] is recorded as “failed to bind”. In data set [5], the “binding to IL-23R deletion proteins 1-348, 1-318 or 1-250” value is recorded as “detected in the precipitate”. For the same compound, the “increase of reporter luciferase activity” value in data set [6] (50 ng/ml) is “approximately 10 folds”.
As to AMTWEDWWLYGR [compound 23], the IC50 in data set [1] was less than 1.56 µM.
For the compound “WT: IL-23 cytokine with wild type p19 subunit, expressed in 293T cells”, the “stimulation of STAT3 reporter activity” value in data set [6] (50,000, 5,000, 500 and 50 ng/ml) was “stimulates the STAT3 activity in a dose-dependent manner”.
With DDWMQYWRQQVR [compound 27], the half-maximal inhibitory concentration (IC50) in data set [1] was roughly 1.56 µM.
ASWVQYWVQ [1.4]: the solubility entry in data set [2] is on record as “formed a precipitate”.
